Experiment: Plasma concentration after 7 days of TP70 in drinking water, APP/PS1 mice
Assay type: in vivo
Settings: after 7 days in drinking water
Excerpt: The validated SmartCage™ system that enables automated, objective, quantitative and long-term evaluation of neuropsychological endpoints at the animal's home cages (Flores, et al., IEEE Trans Biomed Eng, 2007, 54:225-233; Xiong, et al., Stroke, 2011, 42:2026-2032; Carter, et al., Nat Neurosci, 2010, 13:1526-1533; Khroyan, et al., Clin Exp Pharmacol Physiol, 2012, 39:614-622) was used to complement other special individual learning and memory tests (Shineman, et al., Alzheimers Res Ther, 2011, 3:28; Hamann, et al., Neuropsychologia, 2002, 40:1187-1195; Aultman, et al., Psychopharmacology (Berl), 2001, 153:353-364; Ashe, K H, J Alzheimers Dis, 2006, 9:123-126). The SmartCage was able to reveal the behavioral phenotypes of a mouse stroke model of middle cerebral artery occlusion (MCAO) (Xiong, et al., Stroke, 2011, 42:2026-2032) and a hypocretin/orexin neuron degeneration model (orexin/ataxin-3) (Xie, et al., J Clin Invest, 2008, 118:2471-2481; Aultman, et al., Psychopharmacology (Berl), 2001, 153:353-364; Hara, et al., Neuron 2001, 30:345-354). […] These validated protocols were applied to PK/PD studies on TP70 in one more AD transgenic model, APP/PS1 mice, which express mutant APPs in combination with mutant PS1. […] Homecage activity and locomotion were assessed on Day 7 after the treatment and the blood samples were collected from each mouse after the assessment of general behavior. […]

**Q.** For `Cc1cc2c(c(=O)o1)C=C1CCC(C(C)CNCc3ccc(O)cc3)CC1O2` (centres unmarked) [TP70], which “plasma TP70 concentration” value is on record?
**A.** 1.7 ± 0.5 mg/L

**Q.** What about the “plasma TP70 concentration (equivalent)” value of the same compound?
**A.** 4.3 µM

— patent publication US9802962B2, “Tricyclic pyrone compounds reduce amyloid beta aggregates” (priority 2013, dated 2017)
